According to patent US20210198204A1, “PRODRUGS OF KALLIKREIN INHIBITORS” (BioCryst Pharmaceuticals, Inc., priority 2016, published 2021):

Assay: Plasma pharmacokinetics of the parent compound after a single oral dose of prodrug
Type: in vivo
Conditions: single oral dose 10 mg/kg, fasted male Sprague Dawley rats, plasma analyzed for the parent compound
Protocol: Plasma pharmacokinetics of compounds was determined using three male Sprague Dawley rats following a single oral dose administration. All animals were placed in a rat metabolic cage, isolated, and fasted approximately 15 hours prior to dosing. Identifying markers were placed on each animal. Each animal was weighed prior to dose administration. Animals were administered orally with a solution formulation of test compound either in water or a combination of water/propylene glycol, at a dose of 10 mg/kg. Gavage needles were attached to syringes and filled with appropriate amount of test article to be dosed. Blood samples (approximately 500 μL) were collected from three rats at pre-dose (time 0), 0.5, 1, 2, 4, 8, 12 and 24 hr, respectively, depending on study duration. Samples were collected into labeled micro centrifuge tubes containing (heparin solution) as an anticoagulant. Plasma was immediately harvested from the blood by centrifugation at 14,000 rpm for 3 min at 4° C., and stored below −70° C. until bioanalysis. Individual plasma samples were analyzed for the parent compound, 3-[2-(4-carbamimidoyl-phenylcarbamoyl)-5-methoxy-4-vinyl-phenyl]-6-(cyclopropylmethyl-carbamoyl)-pyridine-2-carboxylic acid. As shown in Table-1, the test compounds yielded varying degrees of exposure to the parent compound. The test compounds generally provided for improved bioavailability of the parent compound as compared to dosing of the parent compound in aqueous solutions.

Compound | AUC0-last hour (area under the curve) (study duration 8 h) | AUC0-last hour (area under the curve) (study duration 12 h)
C=Cc1cc(C(=O)Nc2ccc(C(=N)N)cc2)c(-c2ccc(C(=O)NCC3CC3)nc2C(=O)OC[C@H](C)OC(=O)[C@@H](N)C(C)C)cc1OC (single isomer, unassigned) [Compound 18f] | A (A = 0-1,000 ng/mL) | 
C=Cc1cc(C(=O)Nc2ccc(C(=N)N)cc2)c(-c2ccc(C(=O)NCC3CC3)nc2C(=O)OC[C@@H](C)OC(=O)[C@@H](N)C(C)C)cc1OC (single isomer, unassigned) [Compound 18g] | A (A = 0-1,000 ng/mL) | 
C=Cc1cc(C(=O)Nc2ccc(C(=N)N)cc2)c(-c2ccc(C(=O)NCC3CC3)nc2C(=O)OCCN2CCOCC2)cc1OC.Cl [Compound 2d, 2-morpholinoethyl 3-(2-((4-carbamimidoylphenyl)carbamoyl)-5-methoxy-4-vinylphenyl)-6-((cyclopropylmethyl)carbamoyl)picolinate hydrochloride] |  | A (A = 0-1,000 ng/mL)
C=Cc1cc(C(=O)Nc2ccc(C(=N)NC(=O)OCCCCCC)cc2)c(-c2ccc(C(=O)NCC3CC3)nc2C(=O)OCCN2CCOCC2)cc1OC.Cl [Compound 6a, 2-morpholinoethyl 6-((cyclopropylmethyl)carbamoyl)-3-(2-((4-(N-((hexyloxy)carbonyl)carbamimidoyl)phenyl)carbamoyl)-5-methoxy-4-vinylphenyl)picolinate hydrochloride] | A (A = 0-1,000 ng/mL) | 
C=Cc1cc(C(=O)Nc2ccc(C(N)=NO)cc2)c(-c2ccc(C(=O)NCC3CC3)nc2C(=O)O)cc1OC [Compound 9c, 6-((cyclopropylmethyl)carbamoyl)-3-(2-((4-(N′-hydroxycarbamimidoyl)phenyl)carbamoyl)-5-methoxy-4-vinylphenyl)picolinic acid] | A (A = 0-1,000 ng/mL) | 
C=Cc1cc(C(=O)Nc2ccc(C(=N)N)cc2)c(-c2ccc(C(=O)NCC3CC3)nc2C(=O)OCOC(=O)[C@@H](N)C(C)C)cc1OC.O=C(O)C(F)(F)F [Compound 10e, (S)-((2-amino-3-methylbutanoyl)oxy)methyl 3-(2-((4-carbamimidoylphenyl)carbamoyl)-5-methoxy-4-vinylphenyl)-6-((cyclopropylmethyl)carbamoyl)picolinate trifluoroacetate] |  | B (B = 1,001-10,000 ng/mL)
C=Cc1cc(C(=O)Nc2ccc(C(=N)N)cc2)c(-c2ccc(C(=O)NCC3CC3)nc2C(=O)OCc2oc(=O)oc2C)cc1OC [Compound 19d, (5-methyl-2-oxo-1,3-dioxol-4-yl)methyl 3-(2-((4-carbamimidoylphenyl)carbamoyl)-5-methoxy-4-vinylphenyl)-6-((cyclopropylmethyl)carbamoyl)picolinate] |  | A (A = 0-1,000 ng/mL)
C=Cc1cc(C(=O)Nc2ccc(C(=N)NC(=O)OC(C)C)cc2)c(-c2ccc(C(=O)NCC3CC3)nc2C(=O)OC)cc1OC [Compound 20b, methyl 6-((cyclopropylmethyl)carbamoyl)-3-(2-((4-(N-(isopropoxycarbonyl)carbamimidoyl)phenyl)carbamoyl)-5-methoxy-4-vinylphenyl)picolinate] | A (A = 0-1,000 ng/mL) | 
C=Cc1cc(C(=O)Nc2ccc(C(=N)N)cc2)c(-c2ccc(C(=O)NCC3CC3)nc2C(=O)O)cc1OC [Compound 23e, 3-(2-((4-carbamimidoylphenyl)carbamoyl)-5-methoxy-4-vinylphenyl)-6-((cyclopropylmethyl)carbamoyl)picolinic acid] | B (B = 1,001-10,000 ng/mL) | 
C=Cc1cc(C(=O)Nc2ccc(C(=N)NC(=O)OC(C)OC(C)=O)cc2)c(-c2ccc(C(=O)NCC3CC3)nc2C(=O)O)cc1OC (stereo not drawn) [Compound 23f, 3-(2-((4-(N-((1-acetoxyethoxy)carbonyl)carbamimidoyl)phenyl)carbamoyl)-5-methoxy-4-vinylphenyl)-6-((cyclopropylmethyl)carbamoyl)picolinic acid] |  | B (B = 1,001-10,000 ng/mL)
C=Cc1cc(C(=O)Nc2ccc(C(=N)NC(=O)OCCCCCC)cc2)c(-c2ccc(C(=O)NCC3CC3)nc2C(=O)O)cc1OC [Compound 24c, 6-((cyclopropylmethyl)carbamoyl)-3-(2-((4-(N-((hexyloxy)carbonyl)carbamimidoyl)phenyl)carbamoyl)-5-methoxy-4-vinylphenyl)picolinic acid] | A (A = 0-1,000 ng/mL) | 
C=Cc1cc(C(=O)Nc2ccc(C(=N)NC(=O)OCCCCCC)cc2)c(-c2ccc(C(=O)NCC3CC3)nc2C(=O)OCOC(=O)[C@@H](N)C(C)C)cc1OC [Compound 31b, (S)-((2-amino-3-methylbutanoyl)oxy)methyl 6-((cyclopropylmethyl)carbamoyl)-3-(2-((4-(N-((hexyloxy)carbonyl)carbamimidoyl)phenyl)carbamoyl)-5-methoxy-4-vinylphenyl)picolinate] |  | B (B = 1,001-10,000 ng/mL)

More lines, now with the values ahead:

AUC0-last hour (area under the curve) (study duration 8 h) | AUC0-last hour (area under the curve) (study duration 12 h) | Compound
A (A = 0-1,000 ng/mL) |  | C=Cc1cc(C(=O)Nc2ccc(C(=N)N)cc2)c(-c2ccc(C(=O)NCC3CC3)nc2C(=O)OC)cc1OC.CS(=O)(=O)O [Compound 1o, Methyl 3-[2-(4-carbamimidoylphenylcarbamoyl)-5-methoxy-4-vinylphenyl]-6-(cyclopropylmethylcarbamoyl)pyridine-2-carboxylate methanesulfonate]
 | A (A = 0-1,000 ng/mL) | C=Cc1cc(C(=O)Nc2ccc(C(=N)N)cc2)c(-c2ccc(C(=O)NCC3CC3)nc2C(=O)OCOC(=O)OC(C)C)cc1OC [Compound 14d, ((isopropoxycarbonyl)oxy)methyl 3-(2-((4-carbamimidoylphenyl)carbamoyl)-5-methoxy-4-vinylphenyl)-6-((cyclopropylmethyl)carbamoyl)picolinate]
 | A (A = 0-1,000 ng/mL) | C=Cc1cc(C(=O)Nc2ccc(C(=N)N)cc2)c(-c2ccc(C(=O)NCC3CC3)nc2C(=O)OCOC(=O)C(C)(C)C)cc1OC [Compound 15d, (pivaloyloxy)methyl 3-(2-((4-carbamimidoylphenyl)carbamoyl)-5-methoxy-4-vinylphenyl)-6-((cyclopropylmethyl)carbamoyl)picolinate]
A (A = 0-1,000 ng/mL) |  | C=Cc1cc(C(=O)Nc2ccc(C(=N)N)cc2)c(-c2ccc(C(=O)NCC3CC3)nc2C(=O)OCC(C)OC(=O)[C@@H](N)C(C)C)cc1OC (stereo partly drawn) [Compound 18e, 2-(((S)-2-amino-3-methylbutanoyl)oxy)propyl 3-(2-((4-carbamimidoylphenyl)carbamoyl)-5-methoxy-4-vinylphenyl)-6-((cyclopropylmethyl)carbamoyl)picolinate]
A (A = 0-1,000 ng/mL) |  | C=Cc1cc(C(=O)Nc2ccc(C(=N)N)cc2)c(-c2ccc(C(=O)NCC3CC3)nc2C(=O)OC(C)OC(=O)C(C)(C)C)cc1OC (stereo not drawn) [Compound 22d, 1-(pivaloyloxy)ethyl 3-(2-((4-carbamimidoylphenyl)carbamoyl)-5-methoxy-4-vinylphenyl)-6-((cyclopropylmethyl)carbamoyl)picolinate]
 | B (B = 1,001-10,000 ng/mL) | C=Cc1cc(C(=O)Nc2ccc(C(=N)N)cc2)c(-c2ccc(C(=O)NCC3CC3)nc2C(=O)OC(C)OC(=O)C(C)C)cc1OC (stereo not drawn) [Compound 29d, 1-(isobutyryloxy)ethyl 3-(2-(4-carbamimidoylphenylcarbamoyl)-5-methoxy-4-vinylphenyl)-6-(cyclopropylmethylcarbamoyl)picolinate]
